# Earlier results as cited in patent publication US20060063833A1, “Ready-to-use oxaliplatin solutions” (priority 2004, published 2006).
# Assays:
# [1] = at least at concentrations below 1 mg/ml
smiles,measurement,setting,value
"O=C1[O][Pt-2]2([NH2+]C3CCCC[C@H]3[NH2+]2)[O]C1=O (stereo partly drawn) [Oxaliplatin, cis-oxalato-(trans-1,2-cyclohexanediamine)-platinum(II)]",solubility in ethanol,ethanol,practically insoluble
same,solubility in methanol,methanol,scarcely soluble
same,solubility in water,water,soluble
same,stability in water,[1],not very stable
